{"source": "patent US20090326037A1", "about": "(priority 2005, published 2009)", "test_system": "influenza A/Singapore/1/57 virus", "experiment": "microbe, parasite or virus in culture", "format": "cell-based", "key": {"[1]": {"settings": "Influenza A virus, MDCK, read-out: percent of inhibition of viral reproduction"}}, "note": "Where a name gives a salt, the structure may show the parent alone.", "data": [{"smiles": "CCOC(=O)c1c(CSc2ccccc2)n(C)c2cc(Br)c(O)c(CN(C)C)c12", "note": "[Arbidol, 1-methyl-2-phenylthiomethyl-3-carbethoxy-4-dimethylaminomethyl-5-oxy-6-bromindol hydrochloride]", "values": [{"measurement": "Percent of inhibition of OD 490", "setting": "A or C 5 μg/ml + Oseltamivir 4.1 μg, added 2 hours after infection", "value": 100, "unit": "%"}, {"measurement": "Percent of inhibition of OD 490", "setting": "A or C 5 μg/ml + Oseltamivir 12.3 μg, added 2 hours after infection", "value": 98, "unit": "%"}, {"measurement": "Percent of inhibition of OD 490", "setting": "A or C 5 μg/ml + Oseltamivir 41 μg, added 2 hours after infection", "value": "100, 100%"}, {"measurement": "Percent of inhibition of OD 490", "setting": "A or C 10 μg/ml + Oseltamivir 0.4 μg, added 2 hours after infection", "value": 70, "unit": "%"}, {"measurement": "Percent of inhibition of OD 490", "setting": "A or C 10 μg/ml + Oseltamivir 1.2 μg, added 2 hours after infection", "value": 85, "unit": "%"}, {"measurement": "Percent of inhibition of OD 490", "setting": "A or C 10 μg/ml + Oseltamivir 4.1 μg, added 2 hours after infection", "value": 100, "unit": "%"}, {"measurement": "Percent of inhibition of OD 490", "setting": "A or C 10 μg/ml + Oseltamivir 12.3 μg, added 2 hours after infection", "value": 100, "unit": "%"}, {"measurement": "Percent of inhibition of OD 490", "setting": "A or C 10 μg/ml + Oseltamivir 41 μg, added 2 hours after infection", "value": 100, "unit": "%"}, {"measurement": "Percent of inhibition of OD 490", "setting": "A or C 10 μg/ml alone (Oseltamivir 0), added 2 hours after infection", "value": 20, "unit": "%"}, {"measurement": "Percent of inhibition of OD 490", "setting": "A or D 1 μg/ml + Amantadin 0.3 μg/ml, added 30 min prior to infection", "value": 30, "unit": "%"}, {"measurement": "Percent of inhibition of OD 490", "setting": "A or D 1 μg/ml + Amantadin 1 μg/ml, added 30 min prior to infection", "value": 30, "unit": "%"}, {"measurement": "Percent of inhibition of OD 490", "setting": "A or D 1 μg/ml + Amantadin 5 μg/ml, added 30 min prior to infection", "value": 52, "unit": "%"}, {"measurement": "Percent of inhibition of OD 490", "setting": "A or D 1 μg/ml + Amantadin 10 μg/ml, added 30 min prior to infection", "value": 59, "unit": "%"}, {"measurement": "Percent of inhibition of OD 490", "setting": "A or D 1 μg/ml + Remantadin 0.3 μg/ml, added 30 min prior to infection", "value": 31, "unit": "%"}, {"measurement": "Percent of inhibition of OD 490", "setting": "A or D 1 μg/ml + Remantadin 1 μg/ml, added 30 min prior to infection", "value": 33, "unit": "%"}, {"measurement": "Percent of inhibition of OD 490", "setting": "A or D 1 μg/ml + Remantadin 5 μg/ml, added 30 min prior to infection", "value": 50, "unit": "%"}, {"measurement": "Percent of inhibition of OD 490", "setting": "A or D 1 μg/ml + Remantadin 10 μg/ml, added 30 min prior to infection", "value": 59, "unit": "%"}, {"measurement": "Percent of inhibition of OD 490", "setting": "A or D 1 μg/ml alone (Amantadin 0), added 30 min prior to infection", "value": 30, "unit": "%"}, {"measurement": "Percent of inhibition of OD 490", "setting": "A or D 1 μg/ml alone (Remantadin 0), added 30 min prior to infection", "value": 30, "unit": "%"}, {"measurement": "Percent of inhibition of OD 490", "setting": "A or D 5 μg/ml + Amantadin 0.3 μg/ml, added 30 min prior to infection", "value": 60, "unit": "%"}, {"measurement": "Percent of inhibition of OD 490", "setting": "A or D 5 μg/ml + Amantadin 1 μg/ml, added 30 min prior to infection", "value": 68, "unit": "%"}, {"measurement": "Percent of inhibition of OD 490", "setting": "A or D 5 μg/ml + Amantadin 5 μg/ml, added 30 min prior to infection", "value": 74, "unit": "%"}, {"measurement": "Percent of inhibition of OD 490", "setting": "A or D 5 μg/ml + Amantadin 10 μg/ml, added 30 min prior to infection", "value": 81, "unit": "%"}, {"measurement": "Percent of inhibition of OD 490", "setting": "A or D 5 μg/ml + Remantadin 0.3 μg/ml, added 30 min prior to infection", "value": 63, "unit": "%"}, {"measurement": "Percent of inhibition of OD 490", "setting": "A or D 5 μg/ml + Remantadin 1 μg/ml, added 30 min prior to infection", "value": 71, "unit": "%"}, {"measurement": "Percent of inhibition of OD 490", "setting": "A or D 5 μg/ml + Remantadin 5 μg/ml, added 30 min prior to infection", "value": 74, "unit": "%"}, {"measurement": "Percent of inhibition of OD 490", "setting": "A or D 5 μg/ml + Remantadin 10 μg/ml, added 30 min prior to infection", "value": 82, "unit": "%"}, {"measurement": "Percent of inhibition of OD 490", "setting": "A or D 5 μg/ml alone (Amantadin 0), added 30 min prior to infection", "value": 38, "unit": "%"}, {"measurement": "Percent of inhibition of OD 490", "setting": "A or D 5 μg/ml alone (Remantadin 0), added 30 min prior to infection", "value": 38, "unit": "%"}, {"measurement": "Percent of inhibition of OD 490", "setting": "A or D 10 μg/ml + Amantadin 0.3 μg/ml, added 30 min prior to infection", "value": 77, "unit": "%"}, {"measurement": "Percent of inhibition of OD 490", "setting": "A or D 10 μg/ml + Amantadin 1 μg/ml, added 30 min prior to infection", "value": 81, "unit": "%"}, {"measurement": "Percent of inhibition of OD 490", "setting": "A or D 10 μg/ml + Amantadin 5 μg/ml, added 30 min prior to infection", "value": 82, "unit": "%"}, {"measurement": "Percent of inhibition of OD 490", "setting": "A or D 10 μg/ml + Amantadin 10 μg/ml, added 30 min prior to infection", "value": 85, "unit": "%"}, {"measurement": "Percent of inhibition of OD 490", "setting": "A or D 10 μg/ml + Remantadin 0.3 μg/ml, added 30 min prior to infection", "value": 78, "unit": "%"}, {"measurement": "Percent of inhibition of OD 490", "setting": "A or D 10 μg/ml + Remantadin 1 μg/ml, added 30 min prior to infection", "value": 80, "unit": "%"}, {"measurement": "Percent of inhibition of OD 490", "setting": "A or D 10 μg/ml + Remantadin 5 μg/ml, added 30 min prior to infection", "value": 82, "unit": "%"}, {"measurement": "Percent of inhibition of OD 490", "setting": "A or D 10 μg/ml + Remantadin 10 μg/ml, added 30 min prior to infection", "value": 86, "unit": "%"}, {"measurement": "Percent of inhibition of OD 490", "setting": "A or D 10 μg/ml alone (Amantadin 0), added 30 min prior to infection", "value": 67, "unit": "%"}, {"measurement": "Percent of inhibition of OD 490", "setting": "A or D 10 μg/ml alone (Remantadin 0), added 30 min prior to infection", "value": 67, "unit": "%"}, {"measurement": "percent of inhibition of viral reproduction", "setting": "Arbidol 3 μg/ml + Ribavirin 1 μg/ml", "value": 19, "unit": "%"}, {"measurement": "percent of inhibition of viral reproduction", "setting": "Arbidol 3 μg/ml + Ribavirin 3 μg/ml", "value": 30, "unit": "%"}, {"measurement": "percent of inhibition of viral reproduction", "setting": "Arbidol 3 μg/ml + Ribavirin 10 μg/ml", "value": 52, "unit": "%"}, {"measurement": "percent of inhibition of viral reproduction", "setting": "Arbidol 3 μg/ml + Ribavirin 15 μg/ml", "value": 54, "unit": "%"}, {"measurement": "percent of inhibition of viral reproduction", "setting": "Arbidol 10 μg/ml + Ribavirin 1 μg/ml", "value": 26, "unit": "%"}, {"measurement": "percent of inhibition of viral reproduction", "setting": "Arbidol 10 μg/ml + Ribavirin 3 μg/ml", "value": 35, "unit": "%"}, {"measurement": "percent of inhibition of viral reproduction", "setting": "Arbidol 10 μg/ml + Ribavirin 10 μg/ml", "value": 85, "unit": "%"}, {"measurement": "percent of inhibition of viral reproduction", "setting": "Arbidol 10 μg/ml + Ribavirin 15 μg/ml", "value": 82, "unit": "%"}, {"measurement": "percent of inhibition of viral reproduction", "setting": "Arbidol 15 μg/ml + Ribavirin 1 μg/ml", "value": 43, "unit": "%"}, {"measurement": "percent of inhibition of viral reproduction", "setting": "Arbidol 15 μg/ml + Ribavirin 3 μg/ml", "value": 41, "unit": "%"}, {"measurement": "percent of inhibition of viral reproduction", "setting": "Arbidol 15 μg/ml + Ribavirin 10 μg/ml", "value": 82, "unit": "%"}, {"measurement": "percent of inhibition of viral reproduction", "setting": "Arbidol 15 μg/ml + Ribavirin 15 μg/ml", "value": 80, "unit": "%"}, {"measurement": "percent of inhibition of viral reproduction", "setting": "Arbidol 20 μg/ml + Ribavirin 1 μg/ml", "value": 65, "unit": "%"}, {"measurement": "percent of inhibition of viral reproduction", "setting": "Arbidol 20 μg/ml + Ribavirin 3 μg/ml", "value": 68, "unit": "%"}, {"measurement": "percent of inhibition of viral reproduction", "setting": "Arbidol 20 μg/ml + Ribavirin 10 μg/ml", "value": 80, "unit": "%"}, {"measurement": "percent of inhibition of viral reproduction", "setting": "Arbidol 20 μg/ml + Ribavirin 15 μg/ml", "value": 82, "unit": "%"}, {"measurement": "inhibition at 3 µg/mL", "setting": "[1]", "value": "< 0", "unit": "%"}, {"measurement": "inhibition at 10 µg/mL", "setting": "[1]", "value": 23, "unit": "%"}, {"measurement": "inhibition at 15 µg/mL", "setting": "[1]", "value": 40, "unit": "%"}, {"measurement": "inhibition at 20 µg/mL", "setting": "[1]", "value": 55, "unit": "%"}, {"measurement": "inhibition of the virus", "setting": "combination of 3 μg/ml of arbidol and 3.3 mg of zanamivir (oseltamivir), 2 hours after infection", "value": 90, "unit": "%"}]}]}
